How the values were obtained:
[1] = tested on: THP-1; test: In vitro inhibitory effect on production of, lipopolysaccharide (LPS) -induced IL1-beta in human THP-1 cells; type: functional, cell-based
[2] = species on record: Rattus norvegicus; test: In vitro inhibitory effect on production of, calcium ionophore (A23187) -induced Leukotriene B4 (LTB4) in rat peritoneal cells; type: functional, cell-based
[3] = species on record: Rattus norvegicus; test: In vitro inhibitory effect on production of, Prostaglandin E2 (PGE2) in rat synovial cells; type: functional
[4] = tested on: Rattus norvegicus; test: Percent inhibition of carrageenan-induced foot-pad edema at 30 mg/kg po; type: functional
[5] = species on record: Rattus norvegicus; test: In vitro effect on production of calcium ionophore (A23187) -induced Leukotriene B4 (LTB4) in rat peritoneal cells; type: functional, cell-based
[6] = tested on: THP-1; test: In vitro effect on production of lipopolysaccharide (LPS) -induced IL1-beta in human THP-1 cells; type: functional, cell-based
[7] = target: T1, Cyclooxygenase (Rattus norvegicus, UniProt P35355+Q63921)
T1 sequence (P35355 whole entry): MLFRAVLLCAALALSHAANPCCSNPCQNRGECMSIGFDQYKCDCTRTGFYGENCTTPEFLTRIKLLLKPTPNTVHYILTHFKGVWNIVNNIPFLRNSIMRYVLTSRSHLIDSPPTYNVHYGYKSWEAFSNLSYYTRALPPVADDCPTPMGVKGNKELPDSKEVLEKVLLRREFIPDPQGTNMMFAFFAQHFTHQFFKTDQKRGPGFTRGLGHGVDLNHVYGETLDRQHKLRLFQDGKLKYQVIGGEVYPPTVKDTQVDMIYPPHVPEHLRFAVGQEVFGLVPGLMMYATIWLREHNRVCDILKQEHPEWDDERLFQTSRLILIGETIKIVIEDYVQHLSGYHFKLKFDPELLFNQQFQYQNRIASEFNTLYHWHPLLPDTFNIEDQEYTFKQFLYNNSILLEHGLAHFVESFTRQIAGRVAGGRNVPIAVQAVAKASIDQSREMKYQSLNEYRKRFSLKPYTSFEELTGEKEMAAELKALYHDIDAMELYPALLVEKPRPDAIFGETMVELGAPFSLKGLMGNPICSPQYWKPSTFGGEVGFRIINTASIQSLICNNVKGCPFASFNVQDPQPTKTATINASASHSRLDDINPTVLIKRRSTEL
T1 sequence (Q63921 whole entry): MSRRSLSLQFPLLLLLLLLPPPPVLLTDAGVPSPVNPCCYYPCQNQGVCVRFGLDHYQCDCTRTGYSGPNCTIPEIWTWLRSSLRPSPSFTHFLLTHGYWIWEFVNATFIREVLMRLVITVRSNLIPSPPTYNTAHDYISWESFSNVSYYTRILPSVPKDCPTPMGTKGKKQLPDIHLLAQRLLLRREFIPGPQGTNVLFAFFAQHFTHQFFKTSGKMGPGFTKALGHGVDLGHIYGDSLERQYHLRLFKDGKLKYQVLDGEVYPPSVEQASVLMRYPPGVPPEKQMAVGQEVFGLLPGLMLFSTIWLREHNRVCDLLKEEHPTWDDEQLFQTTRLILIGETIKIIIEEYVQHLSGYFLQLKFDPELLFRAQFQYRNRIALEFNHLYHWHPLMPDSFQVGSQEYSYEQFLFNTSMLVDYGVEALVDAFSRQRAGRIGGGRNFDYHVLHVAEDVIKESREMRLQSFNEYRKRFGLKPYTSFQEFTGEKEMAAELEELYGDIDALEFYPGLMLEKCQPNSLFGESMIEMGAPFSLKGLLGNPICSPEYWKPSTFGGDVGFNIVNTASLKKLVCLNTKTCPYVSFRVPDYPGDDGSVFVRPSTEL
Description: In vitro inhibitory effect on production of prostaglandin E2 (PGE2) in rat synovial cells.

[8] = tested on: Rattus norvegicus; test: Percent inhibition of adjuvant-induced arthritis at 10 mg/kg po; type: functional
[9] = species on record: Homo sapiens; test: Inhibitory effect on production of cyclooxygenase-1 (COX-1) thromboxane B2 (TXB2) in human platelet cells
[10] = Inhibitory effect on production of cyclooxygenase-2 (COX-2) prostaglandin E2 (PGE2) in human IL1-beta stimulated synovial cells
[11] = species on record: Rattus norvegicus; test: Inhibitory effect for increase in plasma prostaglandin E2 (PGE2) level after arachidonic acid (AA) injection intoCOX-1 non-lipopolysaccharide-treated rats; type: functional
[12] = species on record: Rattus norvegicus; test: Dose required for 30% inhibition of adjuvant-induced arthritis; type: functional
[13] = tested on: Rattus norvegicus; test: Dose required for 30% inhibition of carrageenan-induced edema; type: functional
[14] = species on record: Rattus norvegicus; test: Inhibitory effect for increase in plasma prostaglandin E2 (PGE2) level after arachidonic acid (AA) injection into COX-1 non-lipopolysaccharide-treated rats; type: functional
[15] = species on record: Rattus norvegicus; test: Dose required for Ulcerogenic effect; type: functional
[16] = species on record: Homo sapiens; test: Inhibitory effect on production of (COX-1) thromboxane B2 (TXB2) in human platelet cells; type: functional, cell-based
[17] = species on record: Rattus norvegicus; test: Inhibitory effect for increase in plasma prostaglandin E2 (PGE2) level after arachidonic acid (AA) injection into COX-2 lipopolysaccharide-treated rats; type: functional
[18] = species on record: Rattus norvegicus; test: Inhibitory effect for increase in plasma prostaglandin E2 (PGE2) level after arachidonic acid (AA) injection into, COX-1 non-lipopolysaccharide-treated rats; type: functional
[19] = Inhibitory effect on production of (COX-2) prostaglandin E2 (PGE2) in human IL1-beta stimulated synovial cells; type: functional
[20] = species on record: Rattus norvegicus
Description: Lengths of bleeding ulcer of drug-administered group

IC50 [5] | IC50 [6] | IC50 [7] | SMILES | inhibition in vivo at 30 mg/kg [4] | also measured
 |  | 0.24 µM | CC(C)(C)c1cc(/C=C2\CCN(CCO)S2(=O)=O)cc(C(C)(C)C)c1O |  | 
 |  | 0.7 µM | CC(C)(C)c1cc(/C=C2/CCN(O)S2(=O)=O)cc(C(C)(C)C)c1O |  | 
1.9 µM | 19 µM | 0.013 µM | CCCN1CC/C(=C\c2cc(C(C)(C)C)c(O)c(C(C)(C)C)c2)S1(=O)=O | 0.3% | inhibition in vivo at 10 mg/kg [8]: 11.4%
0.8 µM | 23 µM | 0.012 µM | CCCN1CC/C(=C/c2cc(C(C)(C)C)c(O)c(C(C)(C)C)c2)S1(=O)=O | 11.2% | 
1.5 µM | 20 µM | 0.0025 µM | CON1CC/C(=C/c2cc(C(C)(C)C)c(O)c(C(C)(C)C)c2)S1(=O)=O | 6% | inhibition in vivo at 10 mg/kg [8]: 5%
4.9 µM | 28 µM | < 0.001 µM | CC(=O)N1CC/C(=C\c2cc(C(C)(C)C)c(O)c(C(C)(C)C)c2)S1(=O)=O | 21% | 
1.8 µM | 29 µM | < 0.001 µM | CN1CC/C(=C/c2cc(C(C)(C)C)c(O)c(C(C)(C)C)c2)S1(=O)=O | 25.2% | 
6 µM | 20 µM | 0.024 µM | CC(C)(C)c1cc(/C=C2\CCN(C(=O)NO)S2(=O)=O)cc(C(C)(C)C)c1O | 14.9% | 
> 100 µM | > 100 µM |  | COc1ccc2c(c1)c(CC(=O)O)c(C)n2C(=O)c1ccc(Cl)cc1 [INDOMETHACIN] |  | ED50 [11]: 0.37 mg/kg; ED30 [12]: 0.06 mg/kg; ED30 [13]: 0.8 mg/kg; ED50 [14]: 0.37 mg/kg; Dose [15]: 30 mg/kg

More lines, now with the values behind:

SMILES | IC50 [5] | IC50 [6] | IC50 [7] | inhibition in vivo at 30 mg/kg [4] | also measured
CCN1CC/C(=C\c2cc(C)c(O)c(C)c2)S1(=O)=O |  |  |  |  | IC50 [1]: > 100 µM; IC50 [2]: 21 µM; IC50 [3]: > 1000 nM
CC(C)(C)c1cc(/C=C2\CCN(c3ccc(Cl)cc3)S2(=O)=O)cc(C(C)(C)C)c1O | 21 µM | > 100 µM | < 0.001 µM | 6.3% | 
CC(C)(C)c1cc(/C=C2\CCN(c3ccncc3)S2(=O)=O)cc(C(C)(C)C)c1O |  |  | 0.41 µM |  | 
CN(C)CCN1CC/C(=C\c2cc(C(C)(C)C)c(O)c(C(C)(C)C)c2)S1(=O)=O |  |  | 0.34 µM |  | 
CC(C)(C)c1cc(/C=C2\CCNS2(=O)=O)cc(C(C)(C)C)c1O | > 100 µM | > 100 µM | 0.03 µM | 17.2% | inhibition in vivo at 10 mg/kg [8]: 8.8%
CC(C)(C)c1cc(/C=C2\CCN(c3cccnc3)S2(=O)=O)cc(C(C)(C)C)c1O |  |  | 0.32 µM |  | 
CC(C)(C)c1cc(/C=C2\CCCNS2(=O)=O)cc(C(C)(C)C)c1O | 74 µM | 56 µM | 0.0062 µM | 14.7% | 
Cc1ccc(-c2cc(C(F)(F)F)nn2-c2ccc(S(N)(=O)=O)cc2)cc1 [CELECOXIB] |  |  |  |  | IC50 [9]: 19 µM; IC50 [10]: 7.9 nM
CS(=O)(=O)Nc1ccc([N+](=O)[O-])cc1OC1CCCCC1 [NS-398] |  |  |  |  | IC50 [16]: 6.8 µM; ED50 [17]: 1 mg/kg; ED50 [18]: > 30 mg/kg; IC50 [19]: 1.9 nM
NC(=O)N1C(=O)/C(=C(\O)c2cccs2)c2cc(Cl)ccc21 [TENIDAP] | 45 µM | 16 µM | 0.053 µM |  | ED30 [12]: 1 mg/kg; ED30 [13]: 4 mg/kg; ED50 [14]: 0.025 mg/kg; ED50 [17]: 0.05 mg/kg; Dose [15]: 30 mg/kg; Ulcer index [20]: 12.9 mm

Reference: ChEMBL document CHEMBL1133187, “Novel antiarthritic agents with 1,2-isothiazolidine-1,1-dioxide (gamma-sultam) skeleton: cytokine suppressive dual inhibitors of cyclooxygenase-2 and 5-lipoxygenase” (J Med Chem, 2000)
